Measurements taken from patent US12215085B2 (priority 2019, dated 2025).
Marks after values point to notes of the source that are not given here.

System: rats with common carotid artery occlusion-induced vascular dementia
Assay: Water maze test, common carotid artery occlusion-induced vascular dementia rats
Assay type: in vivo, rat
Details: succinate; for time for reaching the platform / orientation angle for reaching the platform / speed for reaching the platform / swimming path length for reaching the platform: x ± s; for Average speed / Number of crossing the platform / Orientation angle / Swimming path length in the platform area/total swimming path length × 100% / Time in the platform area / Time in the platform quadrants: Day 7
Text: A rat blood vessel dementia model was made according to the references [ZHAO Xian-lin, FANG Xiu-bin, LI Dong-pei. Establishment of Vascular Dementia Model in Rats, J Chin Med Univ, 2002, 31 (3): 166-168; WANG Yong-yan, Zhang Bo-li, Editor-in-chief. Modern Chinese Medicine Clinic and Research on Vascular Dementia, People's Medical Publishing House, October 2003, First Version 214]: Chloral hydrate 0.4 g/kg was intraperitoneally injected for anesthetizing rats, and bilateral common carotid arteries were isolated and ligated. The animals were fed for 16 weeks, divided into groups on the last 7 days, and administered. The normal control group and the model group were administrated through the intragastric route with distilled water by 0.5 ml/100 g, the positive control group was administrated through the intragastric route with donepezil hydrochloride by 1.75 mg/kg (equivalent to 3.85 times the clinical daily dosage of 5 mg/70 kg), the low, medium and high-dose groups of Crystal Form A of octahydroaminoacridine succinate were administrated through the intragastric route with Crystal Form A of octahydroaminoacridine succinate by 0.7, 1.4 and 2.8 mg/kg (equivalent to 0.96, 1.92 and 3.85 times the clinical daily dosage of 8 mg/70 kg). The water maze test and the step-down test were carried out after continuous administration for 7 days, and the administration was continued during the test period. The water maze test was continuously performed for 7 days, in the first 6 days, in four different water entry points of quadrants 1, 2, 3 and 4, the time, the swimming path length, the orientation angle and the average speed of the rat reaching the platform were measured, meanwhile, the strategy for reaching the platform adopted by rats was observed, on the 7th day, the platform was removed, the number of rats crossing the platform in 2 minutes, the residence time in the platform area, the residence time in the platform quadrants, the percentage of the swimming path length in the platform area quadrants to the total swimming path length, the average speed and the orientation angle were measured. After the water maze test was finished, the step-down test was performed, and the number of electric shocks (or called as the error number) received by each rat within 5 minutes was recorded as the learning performance. The test was performed again after 24 hours, namely, the memory retention test, and the latent period for stepping-down the platform for the first time and the error number in five minutes were recorded. After the step-down test was finished, the brain was taken quickly for pathological examination, and the pathological changes of the hippocampus and the cortex were observed.

[1] = Day 4, 0.7 mg/kg intragastric, 0.7 mg/kg
[2] = Day 4, 1.4 mg/kg intragastric, 1.4 mg/kg
[3] = Day 4, 2.8 mg/kg intragastric, 2.8 mg/kg
[4] = Day 5, 0.7 mg/kg intragastric, 0.7 mg/kg
[5] = Day 5, 1.4 mg/kg intragastric, 1.4 mg/kg
[6] = Day 5, 2.8 mg/kg intragastric, 2.8 mg/kg
[7] = Day 6, 0.7 mg/kg intragastric, 0.7 mg/kg
[8] = Day 6, 1.4 mg/kg intragastric, 1.4 mg/kg
[9] = Day 6, 2.8 mg/kg intragastric, 2.8 mg/kg
[10] = 0.7 mg/kg intragastric, 0.7 mg/kg
[11] = 1.4 mg/kg intragastric, 1.4 mg/kg
[12] = 2.8 mg/kg intragastric, 2.8 mg/kg

SMILES: Nc1c2c(nc3c1CCCC3)CCCC2.O=C(O)CCC(=O)O [Crystal Form A, 9-amino-1,2,3,4,5,6,7,8-octahydroacridine succinate]
- time for reaching the platform (Day 3, 2.8 mg/kg intragastric, 2.8 mg/kg): 21.75 ± 9.58 s
- adopted strategy for reaching the platform (the peripheral type and the random type %) [1]: 69.00%
- orientation angle for reaching the platform [1]: 55.89 ± 20.65 °
- speed for reaching the platform [1]: 25.53 ± 8.12 cm/s
- swimming path length for reaching the platform [1]: 838.00 ± 799.29 cm
- time for reaching the platform [1]: 35.34 ± 35.48 s
- adopted strategy for reaching the platform (the peripheral type and the random type %) [2]: 42.50** %
- orientation angle for reaching the platform [2]: 50.23 ± 20.86 °
- speed for reaching the platform [2]: 28.54 ± 9.09 cm/s
- swimming path length for reaching the platform [2]: 461.53 ± 216.01 cm
- time for reaching the platform [2]: 19.79 ± 10.95 s
- adopted strategy for reaching the platform (the peripheral type and the random type %) [3]: 62.50* %
- orientation angle for reaching the platform [3]: 57.00 ± 17.94 °
- speed for reaching the platform [3]: 27.72 ± 6.59 cm/s
- swimming path length for reaching the platform [3]: 827.58 ± 463.98 cm
- time for reaching the platform [3]: 22.79 ± 10.04 s
- adopted strategy for reaching the platform (the peripheral type and the random type %) [4]: 67.00%
- orientation angle for reaching the platform [4]: 62.38 ± 27.61 °
- speed for reaching the platform [4]: 24.14 ± 7.38 cm/s
- swimming path length for reaching the platform [4]: 878.23 ± 464.48 cm
- time for reaching the platform [4]: 71.16 ± 34.92 s
- adopted strategy for reaching the platform (the peripheral type and the random type %) [5]: 60.00%
- orientation angle for reaching the platform [5]: 55.03 ± 19.71 °
- speed for reaching the platform [5]: 29.15 ± 10.97 cm/s
- swimming path length for reaching the platform [5]: 515.67 ± 565.72 cm
- time for reaching the platform [5]: 16.28 ± 11.42 s
- adopted strategy for reaching the platform (the peripheral type and the random type %) [6]: 57.50%
- orientation angle for reaching the platform [6]: 55.78 ± 27.48 °
- speed for reaching the platform [6]: 27.44 ± 4.86 cm/s
- swimming path length for reaching the platform [6]: 676.75 ± 429.93 cm
- time for reaching the platform [6]: 21.57 ± 17.15 s
- adopted strategy for reaching the platform (the peripheral type and the random type %) [7]: 66.60%
- orientation angle for reaching the platform [7]: 46.48 ± 22.04 °
- speed for reaching the platform [7]: 22.02 ± 6.73 cm/s
- swimming path length for reaching the platform [7]: 606.62 ± 360.87 cm
- time for reaching the platform [7]: 37.72 ± 30.12 s
- adopted strategy for reaching the platform (the peripheral type and the random type %) [8]: 60.00* %
- orientation angle for reaching the platform [8]: 53.94 ± 12.47 °
- speed for reaching the platform [8]: 23.52 ± 2.43 cm/s
- swimming path length for reaching the platform [8]: 393.13 ± 236.85 cm
- time for reaching the platform [8]: 16.62 ± 8.69 s
- adopted strategy for reaching the platform (the peripheral type and the random type %) [9]: 55.00* %
- orientation angle for reaching the platform [9]: 52.70 ± 15.27 °
- speed for reaching the platform [9]: 23.55 ± 2.66 cm/s
- swimming path length for reaching the platform [9]: 433.81 ± 327.88 cm
- time for reaching the platform [9]: 18.98 ± 13.68 s
- Average speed [10]: 24.04 ± 7.96 cm/s
- Number of crossing the platform [10]: 5.55 ± 4.47
- Orientation angle [10]: 5.56 ± 4.47 °
- Swimming path length in the platform area/total swimming path length × 100% [10]: 26.83 ± 7.77%
- Time in the platform area [10]: 1.86 ± 1.78 s
- Time in the platform quadrants [10]: 33.93 ± 11.68 s
- Average speed [11]: 28.44 ± 9.02 cm/s
- Number of crossing the platform [11]: 12.20 ± 5.99
- Orientation angle [11]: 12.20 ± 5.99 °
- Swimming path length in the platform area/total swimming path length × 100% [11]: 31.89 ± 9.92%
- Time in the platform area [11]: 3.18 ± 2.02 s
- Time in the platform quadrants [11]: 40.31 ± 12.72 s
- Average speed [12]: 26.15 ± 5.40 cm/s
- Number of crossing the platform [12]: 10.40 ± 4.40
- Orientation angle [12]: 10.40 ± 4.40 °
- Swimming path length in the platform area/total swimming path length × 100% [12]: 28.40 ± 8.75%
- Time in the platform area [12]: 3.23 ± 3.70 s
- Time in the platform quadrants [12]: 33.72 ± 10.48 s
